Source: ChEMBL document CHEMBL1201862, “PubChem BioAssay data set” (2004)
“And” between values parts separate entries of the source, which are not always exact repeats. Identical values can stand only once.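 Results reflect a 48-hour exposure of cells in 96-well plates to compound at five concentrations. Here, GI50 denotes the concentration required for 50% inhibition of growth.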 The source made the active and inactive calls. No stated cut-off is given here; in the data, active = GI50 up to about 1.1 µM and inactive = higher.

Legend:
Test in all cases: DTP human tumour cell line panel, 48 h
SK-MEL-28 = test system: SK-MEL-28
SNB-75 = test system: SNB-75
CCRF-CEM = test system: CCRF-CEM
UACC-62 = test system: UACC-62
MDA-MB-435 = test system: MDA-MB-435
SN12C = test system: SN12C
SR = test system: SR
KM12 = test system: KM12
UO-31 = test system: UO-31
A549 = test system: A549
NCI-H226 = test system: NCI-H226
MCF7 = test system: MCF7
MDA-N = test system: MDA-N
DU-145 = test system: DU-145
HOP-92 = test system: HOP-92
Malme-3M = test system: Malme-3M
CAKI-1 = test system: CAKI-1
OVCAR-4 = test system: OVCAR-4
OVCAR-3 = test system: OVCAR-3
SF-268 = test system: SF-268

SMILES	GI50 (SK-MEL-28)	GI50 (SNB-75)	GI50 (CCRF-CEM)	GI50 (UACC-62)	GI50 (MDA-MB-435)	GI50 (SN12C)	GI50 (SR)	GI50 (KM12)	GI50 (UO-31)	GI50 (A549)	GI50 (NCI-H226)	GI50 (MCF7)	GI50 (MDA-N)	GI50 (DU-145)	GI50 (HOP-92)	GI50 (Malme-3M)	GI50 (CAKI-1)	GI50 (OVCAR-4)	GI50 (OVCAR-3)	GI50 (SF-268)
Cc1c(NC(=O)Nc2c(Cl)cccc2Cl)c(=O)n(-c2ccccc2)n1C	> 100 µM (inactive)	> 100 µM (inactive)	46.7 µM (inactive)	> 100 µM (inactive)	> 100 µM (inactive)	> 100 µM (inactive)	> 100 µM (inactive)	> 100 µM (inactive)	> 100 µM (inactive)	> 100 µM (inactive)	> 100 µM (inactive)	> 100 µM (inactive)	> 100 µM (inactive)	> 100 µM (inactive)	> 100 µM (inactive)	> 100 µM (inactive)	> 100 µM (inactive)	> 100 µM (inactive)	> 100 µM (inactive)	> 100 µM (inactive)
CCN(CC)c1ccc2cc(-c3nnc(-c4ccccc4)o3)c(=O)oc2c1	> 85.3 µM (inactive)	24.3 µM (inactive)	3.89 µM (inactive)	36.6 µM (inactive)	> 48.6 µM (inactive)	31.4 µM (inactive)	6.64 µM (inactive)	46.7 µM (inactive)	19.1 µM (inactive)	16.4 µM (inactive)	29.4 µM (inactive)	22.5 µM (inactive)	48.5 µM (inactive)	66.2 µM (inactive)	> 100 µM (inactive)	> 66.8 µM (inactive)	> 45.7 µM (inactive)	39.4 µM (inactive)	7.05 µM (inactive)	28 µM (inactive)
O=C(CC(=O)Nc1ccccc1Cl)NNC(c1cc(/N=N/c2ccc(Br)cc2)ccc1O)P(O)O (stereo not given)	7.43 µM (inactive)	1.62 µM (inactive)	0.451 µM (active)	0.964 µM (active)	2.04 µM (inactive)	1.6 µM (inactive)	0.766 µM (active)	2.95 µM (inactive)	0.995 µM (active)	3.82 µM (inactive)	1.22 µM (inactive)	0.791 µM (active)	3.2 µM (inactive)	2.42 µM (inactive)	5.98 µM (inactive)	3.6 µM (inactive)	1.36 µM (inactive)	2.34 µM (inactive)	0.348 µM (active)	0.679 µM (active)
COc1ccccc1C[C@@H]1OC2(C=CC(=O)C=C2)O[C@H]1Cc1ccccc1OC	8.81 µM (inactive)	9.04 µM (inactive)	3.33 µM (inactive)	10.3 µM (inactive)	14.3 µM (inactive)	9.64 µM (inactive)	1.78 µM (inactive)	8.69 µM (inactive)	6.35 µM (inactive)	21.7 µM (inactive)	8.47 µM (inactive)	3.96 µM (inactive)	6 µM (inactive)	18.4 µM (inactive)	9.55 µM (inactive)	9.71 µM (inactive)	10.3 µM (inactive)	8.38 µM (inactive)	8.09 µM (inactive)	7.35 µM (inactive)
c1ccc(-c2c(-c3[nH]c4ccccc4c3-c3ccccc3)[nH]c3ccccc23)cc1	11.4 µM (inactive)	4.15 µM (inactive)	3.4 µM (inactive)	9.98 µM (inactive)	3.44 µM (inactive)	1.91 µM (inactive)	2.74 µM (inactive)	3.03 µM (inactive)	3.68 µM (inactive)	3.5 µM (inactive)	11.6 µM (inactive)	3.33 µM (inactive)	2.74 µM (inactive)	3.38 µM (inactive)	3.21 µM (inactive)	13.7 µM (inactive)	3.33 µM (inactive)	2.17 µM (inactive)	2.3 µM (inactive)	6.47 µM (inactive)
COc1c2c(cc3c1C(O)N1CC[C@]34[C@H]3O[C@H]3[C@H](OC)C[C@@H]14)OCO2 (stereo not given in full)	> 100 µM (inactive)	86.3 µM (inactive)	2.38 µM (inactive)	39.3 µM (inactive)	31.6 µM (inactive)	> 100 µM (inactive)	21.9 µM (inactive)	73.1 µM (inactive)	> 100 µM (inactive)	> 100 µM (inactive)	> 100 µM (inactive)	35 µM (inactive)	25.3 µM (inactive)	> 100 µM (inactive)	> 100 µM (inactive)	71.1 µM (inactive)	> 100 µM (inactive)	> 100 µM (inactive)	16.4 µM (inactive)	> 100 µM (inactive)
O=c1c(Sc2ncccn2)c(Sc2ncccn2)cnn1CCl	3.41 µM (inactive)	16.4 µM (inactive)	0.295 µM (active)	5.75 µM (inactive)	1.77 µM (inactive)	3.79 µM (inactive)	2.79 µM (inactive)	14.7 µM (inactive)	1.7 µM (inactive)	16.4 µM (inactive)	28.1 µM (inactive)	2.88 µM (inactive)	2.17 µM (inactive)	2.64 µM (inactive)	2.59 µM (inactive)	2.05 µM (inactive)	1.98 µM (inactive)	2.15 µM (inactive)	2.02 µM (inactive)	2.99 µM (inactive)
CCN(CC)CCO/N=C1\CC[C@H]2[C@@H]3CCc4cc(OC)ccc4[C@H]3CC[C@]12C	0.628 µM (active)	2.44 µM (inactive)	1.22 µM (inactive)	0.82 µM (active)	0.632 µM (active)	3.03 µM (inactive)	1.49 µM (inactive)	2.01 µM (inactive)	2.94 µM (inactive)	2.84 µM (inactive)	1.88 µM (inactive)	3.66 µM (inactive)	1.75 µM (inactive)	4.76 µM (inactive)	2.45 µM (inactive)	1.82 µM (inactive)	0.74 µM (active)	9.08 µM (inactive)	4.25 µM (inactive)	2.07 µM (inactive)
C=CC(C)(C)c1cc([C@@H]2COc3cc(O)ccc3C2=O)c(O)c(O)c1OC	27.8 µM (inactive)	27.4 µM (inactive)	41.7 µM (inactive)	18.1 µM (inactive)	19.3 µM (inactive)	17.6 µM (inactive)	22.3 µM (inactive)	19.8 µM (inactive)	15.9 µM (inactive)	33.7 µM (inactive)	39.3 µM (inactive)	17.4 µM (inactive)	22.2 µM (inactive)	20.7 µM (inactive)	18.8 µM (inactive)	30.5 µM (inactive)	13.2 µM (inactive)	16.9 µM (inactive)	15.8 µM (inactive)	18.2 µM (inactive)
OC(C/C=N/N=C/CC(O)(C(F)(F)Cl)C(F)(F)Cl)(C(F)(F)Cl)C(F)(F)Cl	> 10 µM (inactive)	> 10 µM (inactive)	> 10 µM (inactive)	> 10 µM (inactive)	> 10 µM (inactive)	> 10 µM (inactive)	> 10 µM (inactive)	> 10 µM (inactive)	> 10 µM (inactive)	> 10 µM (inactive)	> 10 µM (inactive)	> 10 µM (inactive)	> 10 µM (inactive)	> 10 µM (inactive)	7.19 µM (inactive)	> 10 µM (inactive)	> 10 µM (inactive)	> 10 µM (inactive)	> 10 µM (inactive)	> 10 µM (inactive)
O=C(O)c1ccccc1CC1Cc2ccc3c(c2C1=O)CCC3 (stereo not given)	> 100 µM (inactive)	87.1 µM (inactive)	> 100 µM (inactive)	> 100 µM (inactive)	> 100 µM (inactive)	> 100 µM (inactive)	> 100 µM (inactive)	> 100 µM (inactive)	> 100 µM (inactive)	> 100 µM (inactive)	> 100 µM (inactive)	> 100 µM (inactive)	> 100 µM (inactive)	> 100 µM (inactive)	> 100 µM (inactive)	> 100 µM (inactive)	> 100 µM (inactive)	> 100 µM (inactive)	> 100 µM (inactive)	> 100 µM (inactive)
CC(=O)OC1CC2C(=O)CC1(C)C2(C)C (stereo not given)	> 100 µM (inactive)	67.9 µM (inactive) and > 83.6 µM (inactive)	> 100 µM (inactive)	> 100 µM (inactive)	> 100 µM (inactive)	> 100 µM (inactive)	> 100 µM (inactive)	> 100 µM (inactive)	> 100 µM (inactive)	> 100 µM (inactive)	> 100 µM (inactive)	> 100 µM (inactive)	> 100 µM (inactive)	> 100 µM (inactive)	> 100 µM (inactive)	> 100 µM (inactive)	> 100 µM (inactive)	> 100 µM (inactive)	> 100 µM (inactive)	> 100 µM (inactive)
O=c1oc2c(ccc3c(O)cccc32)c2c1CCCC2	> 100 µM (inactive)	4.85 µM (inactive)	> 100 µM (inactive)	4.71 µM (inactive)	> 100 µM (inactive)	> 100 µM (inactive)	4.55 µM (inactive)	> 100 µM (inactive)	21.1 µM (inactive)	72.3 µM (inactive)	> 100 µM (inactive)	42.2 µM (inactive)	> 100 µM (inactive)	> 100 µM (inactive)	16.6 µM (inactive)	68.9 µM (inactive)	32.2 µM (inactive)	> 100 µM (inactive)	> 100 µM (inactive)	15 µM (inactive)
COc1ccc2cc(C(C)C(=O)N3CCOC3=O)ccc2c1 (stereo not given)	> 100 µM (inactive)	44.7 µM (inactive)	> 100 µM (inactive)	> 100 µM (inactive)	> 100 µM (inactive)	> 100 µM (inactive)	> 100 µM (inactive)	> 100 µM (inactive)	> 100 µM (inactive)	> 100 µM (inactive)	> 100 µM (inactive)	> 100 µM (inactive)	> 100 µM (inactive)	> 100 µM (inactive)	> 100 µM (inactive)	> 100 µM (inactive)	> 100 µM (inactive)	> 100 µM (inactive)	> 100 µM (inactive)	> 100 µM (inactive)
